Test results from patent US20120053053A1, “PYRIMIDINE DERIVATIVES AND THEIR USE AS HERBICIDES” (SYNGENTA CROP PROTECTION, LLC, priority 2009, published 2012).

Legend:
Type in all cases: in vivo
[1] = tested on: Echinochloa crus-galli (ECHCG); assay: Post-emergence biological efficacy (percentage damage); details: Echinochloa crus-galli, 312 h, dose 1,000 g/ha, evaluated after 13 days, 100=total damage, 0=no damage
Procedure, shortened: (§1)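 Seedlings grown 8 days in soil in a glasshouse (24/16 °C day/night, 14 h light, 65% humidity), then sprayed with compound in acetone/water (50:50) with 0.5% Tween 20 at 250 or 1000 g/ha. Damage scored visually after 13 days (0 = none, 100 = total).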

[2] = tested on: Solanum nigrum (SOLNI); assay: as above; details: Solanum nigrum, 312 h, dose 1,000 g/ha, evaluated after 13 days, 100=total damage, 0=no damage
Procedure, shortened: as §1

[3] = tested on: Alopecurus myosuroides (ALOMY); assay: as above; details: Alopecurus myosuroides, 312 h, dose 1,000 g/ha, evaluated after 13 days, 100=total damage, 0=no damage
Procedure, shortened: as §1

[4] = tested on: Setaria faberi (SETFA); assay: as above; details: Setaria faberi, 312 h, dose 1,000 g/ha, evaluated after 13 days, 100=total damage, 0=no damage
Procedure, shortened: as §1

[5] = tested on: Amaranthus retoflexus (AMARE); assay: as above; details: Amaranthus retroflexus, 312 h, dose 1,000 g/ha, evaluated after 13 days, 100=total damage, 0=no damage
Procedure, shortened: as §1

[6] = tested on: Ipomea hederaceae (IPOHE); assay: as above; details: Ipomoea hederacea, 312 h, dose 1,000 g/ha, evaluated after 13 days, 100=total damage, 0=no damage
Procedure, shortened: as §1

[7] = tested on: Echinochloa crus-galli (ECHCG); assay: Pre-emergence biological efficacy (percentage damage); details: Echinochloa crus-galli, 312 h, dose 1,000 g/ha, evaluated after 13 days, 100=total damage, 0=no damage
Procedure, shortened: (§2)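 Sow seeds in pots of standard soil; hold 1 day in glasshouse (24/16 °C, 14 h light, 65% humidity). Spray aqueous solution from acetone/water (50:50) with 0.5% Tween 20 at 250 or 1000 g/ha. Grow on, watering twice daily; rate damage at 13 days.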

[8] = tested on: Solanum nigrum (SOLNI); assay: as above; details: Solanum nigrum, 312 h, dose 1,000 g/ha, evaluated after 13 days, 100=total damage, 0=no damage
Procedure, shortened: as §2

[9] = tested on: Alopecurus myosuroides (ALOMY); assay: as above; details: Alopecurus myosuroides, 312 h, dose 1,000 g/ha, evaluated after 13 days, 100=total damage, 0=no damage
Procedure, shortened: as §2

[10] = tested on: Setaria faberi (SETFA); assay: as above; details: Setaria faberi, 312 h, dose 1,000 g/ha, evaluated after 13 days, 100=total damage, 0=no damage
Procedure, shortened: as §2

[11] = tested on: Amaranthus retoflexus (AMARE); assay: as above; details: Amaranthus retroflexus, 312 h, dose 1,000 g/ha, evaluated after 13 days, 100=total damage, 0=no damage
Procedure, shortened: as §2

[12] = tested on: Ipomea hederaceae (IPOHE); assay: as above; details: Ipomoea hederacea, 312 h, dose 1,000 g/ha, evaluated after 13 days, 100=total damage, 0=no damage
Procedure, shortened: as §2

Row | SMILES | pest or weed control at 1000 g/ha [1] | pest or weed control at 1000 g/ha [2] | pest or weed control at 1000 g/ha [3] | pest or weed control at 1000 g/ha [4] | pest or weed control at 1000 g/ha [5] | pest or weed control at 1000 g/ha [6] | pest or weed control at 1000 g/ha [7] | pest or weed control at 1000 g/ha [8] | pest or weed control at 1000 g/ha [9] | pest or weed control at 1000 g/ha [10] | pest or weed control at 1000 g/ha [11] | pest or weed control at 1000 g/ha [12]
1 | CC(O)c1c(N)nc(-c2ccc(C(F)(F)F)cc2)nc1CO (stereo not drawn) [Compound 31-372, 4-amino-5-(1-hydroxyethyl)-6-hydroxymethyl-2-(4-trifluoromethylphenyl)-pyrimidine] | 10% | 30% | 10% | 30% | 20% | 30% | 0% | 0% | 0% | 0% | 0% | 0%
2 | C=Cc1c(N)nc(-c2ccc(Cl)c(N(C)C)c2F)nc1C(=O)O [Compound 33-21, 4-Amino-2-(4-chloro-3-dimethylamino-2-fluorophenyl)-5-ethenylpyrimidine-6-carboxylic acid] | 100% | 90% | 90% | 100% | 100% | 70% | 100% | 100% | 90% | 100% | 100% | 80%
3 | COC(=O)c1nc(-c2ccc(Cl)c(N(C)C)c2F)nc(N)c1C [Compound 33-41] | 50% | 70% | 30% | 70% | 100% | 10% | 10% | 30% | 10% | 30% | 20% | 0%
4 | COC(=O)c1nc(-c2ccc(Cl)c(N(C)C)c2F)nc(N)c1C(C)=O [Compound 33-53, 4-Amino-2-(4-chloro-3-dimethylamino-2-fluorophenyl)-6-methoxycarbonyl-5-methylcarbonyl-pyrimidine] | 20% | 50% | 10% | 20% | 100% | 40% | 0% | 0% | 0% | 0% | 0% | 0%
5 | C=Cc1c(N)nc(-c2ccc(Cl)c(N(C)C)c2F)nc1C(=O)OC [Compound 33-61] | 20% | 80% | 20% | 30% | 70% | 90% | 0% | 30% | 0% | 10% | 50% | 40%
6 | C=C(C)c1c(N)nc(-c2ccc(Cl)c(N(C)C)c2F)nc1C(=O)OC [Compound 33-64, 4-Amino-2-(4-chloro-3-dimethylamino-2-fluorophenyl)-6-methoxycarbonyl-5-(prop-1-en-2-yl)-pyrimidine] | 0% | 20% | 0% | 0% | 10% | 10% | 0% | 0% | 0% | 0% | 0% | 0%
7 | C=C(OCC)c1c(N)nc(-c2ccc(Cl)c(N(C)C)c2F)nc1C(=O)OC [Compound 33-67, 4-Amino-2-(4-chloro-3-dimethylamino-2-fluorophenyl)-5-(1-ethoxyethenyl)-6-methoxycarbonyl-pyrimidine] | 0% | 40% | 0% | 0% | 10% | 20% | 0% | 0% | 0% | 0% | 0% | 10%
8 | C=Cc1c(N)nc(-c2ccc(Cl)c(N(C)C)c2F)nc1C(=O)OCC [Compound 33-101, 4-amino-2-(4-chloro-3-dimethylamino-2-fluorophenyl)-5-ethenyl-6-ethoxycarbonyl-pyrimidine] | 90% | 90% | 80% | 80% | 100% | 60% | 90% | 90% | 60% | 90% | 100% | 30%
9 | C=Cc1c(N)nc(-c2ccc(Cl)c(N(C)C)c2F)nc1C(=O)OC(C)C [Compound 33-306, 4-Amino-2-(4-chloro-3-dimethylamino-2-fluorophenyl)-5-ethenyl-6-isopropoxycarbon-yl-pyrimidine] | 70% | 100% | 40% | 70% | 100% | 30% | 20% | 80% | 20% | 20% | 40% | 0%
10 | C=Cc1c(N)nc(-c2ccc(Cl)c(N(C)C)c2F)nc1C(=O)OCCC [Compound 33-316] | 100% | 90% | 70% | 90% | 100% | 40% | 90% | 80% | 60% | 70% | 90% | 10%
11 | C=Cc1c(N)nc(-c2ccc(Cl)c(N(C)C)c2F)nc1C(=O)OCC(C)C [Compound 33-326, 4-Amino-2-(4-chloro-3-dimethylamino-2-fluorophenyl)-5-ethenyl-6-(2-methylpropoxy) carbonyl-pyrimidine] | 80% | 90% | 20% | 40% | 100% | 50% | 40% | 60% | 20% | 20% | 60% | 10%
12 | C=Cc1c(N)nc(-c2ccc(Cl)c(N(C)C)c2F)nc1C(=O)OCc1ccccc1 [Compound 33-336, 4-Amino-2-(4-chloro-3-dimethylamino-2-fluorophenyl)-5-ethenyl-6-phenylmethoxy-carbonyl-pyrimidine] | 90% | 90% | 90% | 90% | 100% | 40% | 90% | 80% | 70% | 80% | 100% | 20%
13 | C=Cc1c(N)nc(-c2ccc(Cl)c(N(C)C)c2F)nc1C(=O)OCCCC [Compound 33-391] | 90% | 80% | 70% | 90% | 100% | 80% | 100% | 100% | 70% | 90% | 100% | 20%
